# In patent publication US20250049781A1, “PHARMACEUTICAL COMPOSITIONS COMPRISING RPL554 IN HFA-134A FOR ADMINISTRATION BY INHALATION” (VERONA PHARMA PLC, priority 2018, published 2025):
# Several values for one entry are separate records, joined by “and”; a condition that tells them apart may be missing. Equal entries are not always repeated.
# Legend:
# Assay type in all cases: physicochemical
# [1] = RPL554 dissolved in HFA-134a/ethanol with or without oleic acid (UV/Visible); details: 24 hours at ambient temperature
# Experimental: Samples were prepared by adding 1.5 mg of RPL554 to plain 14 mL aluminium canisters, with ethanol, oleic acid and HFA-134a. Excipients were added to the canisters to maintain an ethanol/oleic acid ratio of a 50:1 (see Table 8). Corresponding canisters were also produced containing RPL554, ethanol and HFA-134a only. The canisters were crimped with 63 μL pMDI valves, with shortened dip tubes (FIG. 3), and filled to 11.6 g with HFA-134a through the valve. The length of the dip tubes was sufficient to extend into the liquid propellant/co-solvent phase only (i.e. after the API particles had settled). The samples were placed in an ultrasonic bath for 30 seconds.
# All the canisters were left for 24 hours at ambient temperature to settle and to establish dissolution equilibrium. To determine the amount of API dissolved, each canister was fired five times, in an upright position (through a cannula fitted to the valve stem) into a 10.0 cm^3 volumetric flask. The flask was made up to volume with dehydrated ethanol and the solution was analysed using UV/Visible spectroscopy (Perkin Elmer, Model Lambda 35). The concentration of RPL554 was calculated, quantitatively, against a three point standard curve.
# [2] = Solubility of RPL554 in ethanol (USP/BP criteria)
# Experimental: However, the observations of dissolution and recrystallisation with the lowest product strength (10 μg/actuation) prompted further investigations into the solubility of RPL554 in ethanol in the presence of oleic acid.
# The original assessment was carried out using Analytical Reagent grade ethanol. […] Unexpectedly, RPL554 was therefore found to have some solubility in ethanol.
# [3] = Sedimentation score of RPL554 suspensions in HFA-134a, HFA-227ea and mixtures (visual, glass vials); parameters: key to Sedimentation score: 1 = fastest sediment/cream (undesirable), 10 = slowest (acceptable)
# Experimental: (§1) Samples were made by adding the required amounts of RPL554 (see Table 3) to 15 ml pressure rated clear glass vials. The propellant, HFA-134a, HFA-227ea or combinations of the two (see Table 4) was added through the valve and the samples were mixed in an ultrasonic bath for 30 seconds. The same target fill weight of 11.6 g (±0.5 g) was used for all samples. The appearance of the API particles in the propellants was assessed with regards to both the sedimentation rate and flocculation behaviour (see FIG. 1). The sedimentation rate of the formulations was visually assessed after suspension agitation by recording images of the glass vials using a high-speed camera. The suspension quality was determined by assigning a sedimentation score of from 1 to 10 based on the amount of active particles which had settled or floated in 30 seconds, with 1being the fastest to sediment/cream (i.e. undesirable) and 10 being the slowest to sediment/cream (i.e. acceptable).
# [4] = Sedimentation score of pMDI formulations containing HFA-134a, oleic acid and ethanol; parameters: key: 1 = fastest sedimentation (undesirable), 10 = slowest (acceptable)
# Experimental: as §1
# In order to seek to improve the suspension characteristics the inclusion of additional excipients was investigated. In particular, formulations further comprising a surfactant (oleic acid, Ph. Eur./BP) and a co-solvent (ethanol, 100% USP-NF) were prepared.
structure (smiles),measurement,setting,value
"COc1cc2c(cc1OC)-c1c/c(=N\c3c(C)cc(C)cc3C)n(CCNC(N)=O)c(=O)n1CC2 [RPL554, 9,10-dimethoxy-2-(2,4,6-trimethylphenylimino)-3-(N-carbamoyl-2-aminoethyl)-3,4,6,7-tetrahydro-2H-pyrimido[6,1-a]isoquinolin-4-one]",Amount of dissolved RPL554 versus ethanol concentration,[1]; HFA-134a with 1-12% w/w ethanol,increased with increasing ethanol concentration
same,Effect of oleic acid on the solubility of RPL554,"[1]; HFA-134a/ethanol, ethanol/oleic acid ratio 50:1",no effect
same,Solubility classification according to the USP/BP criteria,"[2]; Analytical Reagent grade ethanol, previous (original) assessment",practically insoluble
same,Solubility classification according to the USP/BP criteria,"[2]; dehydrated alcohol (100% USP-NF ethanol), reassessment",very slightly soluble
same,Sedimentation score,"[3]; 10 μg/actuation, HFA-134a 0% w/w, HFA-227ea 100% w/w",3
same,Sedimentation score,"[3]; 10 μg/actuation, HFA-134a 25% w/w, HFA-227ea 75% w/w",5
same,Sedimentation score,"[3]; 10 μg/actuation, HFA-134a 50% w/w, HFA-227ea 50% w/w",4
same,Sedimentation score,"[3]; 10 μg/actuation, HFA-134a 75% w/w, HFA-227ea 25% w/w",6
same,Sedimentation score,"[3]; 10 μg/actuation, HFA-134a 100% w/w, HFA-227ea 0% w/w, scale 1-10, 10 slowest",6
same,Sedimentation score,"[3]; 50 μg/actuation, HFA-134a 0% w/w, HFA-227ea 100% w/w",3
same,Sedimentation score,"[3]; 50 μg/actuation, HFA-134a 25% w/w, HFA-227ea 75% w/w",4
same,Sedimentation score,"[3]; 50 μg/actuation, HFA-134a 50% w/w, HFA-227ea 50% w/w",3
same,Sedimentation score,"[3]; 50 μg/actuation, HFA-134a 75% w/w, HFA-227ea 25% w/w",6
same,Sedimentation score,"[3]; 50 μg/actuation, HFA-134a 100% w/w, HFA-227ea 0% w/w",6
same,Sedimentation score,"[3]; 150 μg/actuation, HFA-134a 0% w/w, HFA-227ea 100% w/w",3
same,Sedimentation score,"[3]; 150 μg/actuation, HFA-134a 25% w/w, HFA-227ea 75% w/w",4
same,Sedimentation score,"[3]; 150 μg/actuation, HFA-134a 50% w/w, HFA-227ea 50% w/w",3
same,Sedimentation score,"[3]; 150 μg/actuation, HFA-134a 75% w/w, HFA-227ea 25% w/w",3
same,Sedimentation score,"[3]; 150 μg/actuation, HFA-134a 100% w/w, HFA-227ea 0% w/w",5
same,Sedimentation score,"[3]; 500 μg/actuation, HFA-134a 0% w/w, HFA-227ea 100% w/w",2
same,Sedimentation score,"[3]; 500 μg/actuation, HFA-134a 25% w/w, HFA-227ea 75% w/w",3
same,Sedimentation score,"[3]; 500 μg/actuation, HFA-134a 50% w/w, HFA-227ea 50% w/w",2
same,Sedimentation score,"[3]; 500 μg/actuation, HFA-134a 75% w/w, HFA-227ea 25% w/w",3
same,Sedimentation score,"[3]; 500 μg/actuation, HFA-134a 100% w/w, HFA-227ea 0% w/w",3
same,Sedimentation score,"[3]; 1000 μg/actuation, HFA-134a 0% w/w, HFA-227ea 100% w/w",2
same,Sedimentation score,"[3]; 1000 μg/actuation, HFA-134a 25% w/w, HFA-227ea 75% w/w",4
same,Sedimentation score,"[3]; 1000 μg/actuation, HFA-134a 50% w/w, HFA-227ea 50% w/w",3
same,Sedimentation score,"[3]; 1000 μg/actuation, HFA-134a 75% w/w, HFA-227ea 25% w/w",4
same,Sedimentation score,"[3]; 1000 μg/actuation, HFA-134a 100% w/w, HFA-227ea 0% w/w",4
same,Suspension behaviour on and after shaking,[3]; formulation in HFA-134a,"readily suspended on shaking, with rapid flocculation and gradual sedimentation observed after shaking was stopped"
same,Suspension behaviour on and after shaking,[3]; formulation in HFA-227ea,creaming was observed after the cessation of shaking
same,Suspension behaviour on and after shaking,[3]; formulation in blend of HFA-134a/HFA-227ea (50/50),creaming was observed after the cessation of shaking
same,Sedimentation score,"[4]; 10 μg/actuation, ethanol 1% w/w, oleic acid 0.010% w/w",6
same,Sedimentation score,"[4]; 10 μg/actuation, ethanol 1% w/w, oleic acid 0.500% w/w",1
same,Sedimentation score,"[4]; 10 μg/actuation, ethanol 5% w/w, oleic acid 0.255% w/w",6
same,Sedimentation score,"[4]; 10 μg/actuation, ethanol 15% w/w, oleic acid 0.010% w/w",6
same,Sedimentation score,"[4]; 10 μg/actuation, ethanol 15% w/w, oleic acid 0.500% w/w",6
same,Sedimentation score,"[4]; 150 μg/actuation, ethanol 1% w/w, oleic acid 0.255% w/w",2
same,Sedimentation score,"[4]; 150 μg/actuation, ethanol 5% w/w, oleic acid 0.010% w/w",4
same,Sedimentation score,"[4]; 150 μg/actuation, ethanol 5% w/w, oleic acid 0.255% w/w (six replicate samples)",5 (5×) and 4
same,Sedimentation score,"[4]; 150 μg/actuation, ethanol 5% w/w, oleic acid 0.500% w/w",4
same,Sedimentation score,"[4]; 150 μg/actuation, ethanol 15% w/w, oleic acid 0.255% w/w",8
same,Sedimentation score,"[4]; 1000 μg/actuation, ethanol 1% w/w, oleic acid 0.010% w/w",3
same,Sedimentation score,"[4]; 1000 μg/actuation, ethanol 1% w/w, oleic acid 0.500% w/w",2
same,Sedimentation score,"[4]; 1000 μg/actuation, ethanol 5% w/w, oleic acid 0.255% w/w",3
same,Sedimentation score,"[4]; 1000 μg/actuation, ethanol 15% w/w, oleic acid 0.010% w/w",4
same,Sedimentation score,"[4]; 1000 μg/actuation, ethanol 15% w/w, oleic acid 0.500% w/w",5
